Source: ChEMBL document CHEMBL4138122, “Azaphenothiazines - promising phenothiazine derivatives. An insight into nomenclature, synthesis, structure elucidation and biological properties” (Eur J Med Chem, 2017)
pIC50: −log10 of the molar value. In brackets after ≈: the same amount, converted by molar mass.

Experiments:
[1] = Inhibition of LTB4 formation in rat polymorphonuclear leukocytes preincubated for 2 mins followed by A-23187 addition after 4 mins; assay type: functional, cell-based
Rattus norvegicus = experiment: Inhibition of PAF-induced hyperalgesia in Sprague-Dawley rat at 10 mg/kg, po dosed 30 mins prior to PAF challenge and measured 1 to 4 hours post PAF challenge; assay type: functional
Trachea [2] = experiment: Inhibition of egg albumin antigen challenge-induced contraction response in methacholine-primed guinea pig trachea at 10 ug/ml; assay type: functional; details: Cavia porcellus
[3] = system: Mycobacterium tuberculosis; experiment: Antitubercular activity against Mycobacterium tuberculosis; assay type: functional
MCF7 [4] = experiment: Cytotoxicity against human MCF7 cells assessed as inhibition of cell growth after 72 hrs by SRB assay; assay type: functional, cell-based; details: MCF7, 72 h
PC-3 [5] = experiment: Cytotoxicity against human PC3 cells assessed as inhibition of cell growth after 72 hrs by SRB assay; assay type: functional, cell-based; details: PC-3, 72 h
HepG2 = experiment: cells; details: Homo sapiens, HepG2, 72 h
Description: Cytotoxicity against human HepG2 cells assessed as inhibition of cell growth after 72 hrs by SRB assay

HCT-116 [6] = experiment: Cytotoxicity against human HCT116 cells assessed as inhibition of cell growth after 72 hrs by SRB assay; assay type: functional, cell-based; details: HCT-116, 72 h
Trachea [7] = experiment: Inhibition of egg albumin antigen challenge-induced contraction response in methacholine-primed guinea pig trachea at 3 ug/ml; assay type: functional; details: Cavia porcellus
SNB-75 = experiment: Cytotoxicity against human SNB75 cells assessed as cell growth inhibition after 48 hrs by SRB assay; assay type: functional, cell-based; details: SNB-75, 48 h
OVCAR-4 = experiment: Cytotoxicity against human OVCAR4 cells assessed as cell growth inhibition after 48 hrs by SRB assay; assay type: functional, cell-based; details: OVCAR-4, 48 h
OVCAR-5 = experiment: Cytotoxicity against human OVCAR5 cells assessed as cell growth inhibition after 48 hrs by SRB assay; assay type: functional, cell-based; details: OVCAR-5, 48 h
MOLT-4 = experiment: Cytotoxicity against human MOLT4 cells assessed as cell growth inhibition after 48 hrs by SRB assay; assay type: functional, cell-based; details: MOLT-4, 48 h
SK-MEL-5 = experiment: Cytotoxicity against human SK-MEL-5 cells assessed as cell growth inhibition after 48 hrs by SRB assay; assay type: functional, cell-based; details: SK-MEL-5, 48 h
IGROV-1 = experiment: Cytotoxicity against human IGROV1 cells assessed as cell growth inhibition after 48 hrs by SRB assay; assay type: functional, cell-based; details: IGROV-1, 48 h
NCI-H460 = experiment: Cytotoxicity against human NCI-H460 cells assessed as cell growth inhibition after 48 hrs by SRB assay; assay type: functional, cell-based; details: NCI-H460, 48 h
HOP-92 = experiment: Cytotoxicity against human HOP92 cells assessed as cell growth inhibition after 48 hrs by SRB assay; assay type: functional, cell-based; details: HOP-92, 48 h
CCRF-CEM = experiment: Cytotoxicity against human CCRF-CEM cells assessed as cell growth inhibition after 48 hrs by SRB assay; assay type: functional, cell-based
PC-3 [8] = experiment: Cytotoxicity against human PC3 cells assessed as cell growth inhibition after 48 hrs by SRB assay; assay type: functional, cell-based; details: PC-3, 48 h
786-0 = experiment: Cytotoxicity against human 786-O cells assessed as cell growth inhibition after 48 hrs by SRB assay; assay type: functional, cell-based; details: 786-0, 48 h
HCT-116 [9] = experiment: Cytotoxicity against human HCT116 cells assessed as cell growth inhibition after 48 hrs by SRB assay; assay type: functional, cell-based; details: HCT-116, 48 h
SF-295 = experiment: Cytotoxicity against human SF295 cells assessed as cell growth inhibition after 48 hrs by SRB assay; assay type: functional, cell-based; details: SF-295, 48 h
T47D = experiment: Growth inhibition of human T47D cells at 10 uM; assay type: functional; details: read-out: GI
MCF7 [10] = experiment: Growth inhibition of human MCF7 cells at 10 uM; assay type: functional; details: read-out: GI
UO-31 [11] = experiment: Growth inhibition of human UO31 cells at 10 uM; assay type: functional; details: read-out: GI
Aspergillus niger = experiment: Antifungal activity against Aspergillus niger by CLSI protocol based method; assay type: functional
Escherichia coli = experiment: Antibacterial activity against Escherichia coli by CLSI protocol based method; assay type: functional
EKVX = experiment: Cytotoxicity against human EKVX cells assessed as cell growth inhibition at 2.1 ug/ml after 48 hrs by SRB assay; assay type: functional, cell-based
UO-31 [12] = experiment: Cytotoxicity against human UO31 cells assessed as cell growth inhibition at 2.1 ug/ml after 48 hrs by SRB assay; assay type: functional; details: UO-31, 48 h, read-out: GI
COLO 205 = experiment: Cytotoxicity against human COLO205 cells assessed as cell growth inhibition after 48 hrs by SRB assay; assay type: functional, cell-based; details: COLO 205, 48 h
Hs-578T = experiment: Cytotoxicity against human Hs578T cells assessed as cell growth inhibition after 48 hrs by SRB assay; assay type: functional, cell-based
RXF 393 = experiment: Cytotoxicity against human RXF393 cells assessed as cell growth inhibition after 48 hrs by SRB assay; assay type: functional, cell-based; details: RXF 393, 48 h
OVCAR-8 = experiment: Cytotoxicity against human OVCAR8 cells assessed as cell growth inhibition after 48 hrs by SRB assay; assay type: functional, cell-based; details: OVCAR-8, 48 h
SNB-19 = experiment: Cytotoxicity against human SNB19 cells assessed as cell growth inhibition after 48 hrs by SRB assay; assay type: functional, cell-based; details: SNB-19, 48 h
SF-539 = experiment: Cytotoxicity against human SF539 cells assessed as cell growth inhibition after 48 hrs by SRB assay; assay type: functional, cell-based; details: SF-539, 48 h
Liver = experiment: Antioxidant activity in rat liver microsomal membranes assessed as inhibition of Fe(2+)/ascorbate-induced lipid peroxidation; assay type: functional, microsomes, microsome
ACHN = experiment: Cytotoxicity against human ACHN cells assessed as cell growth inhibition after 48 hrs by SRB assay; assay type: functional, cell-based
HOP-62 = experiment: Cytotoxicity against human HOP62 cells assessed as cell growth inhibition after 48 hrs by SRB assay; assay type: functional, cell-based; details: HOP-62, 48 h
M14 = experiment: Cytotoxicity against human M14 cells assessed as cell growth inhibition after 48 hrs by SRB assay; assay type: functional, cell-based; details: M14, 48 h
HL-60 = experiment: Cytotoxicity against human HL60 cells assessed as cell growth inhibition after 48 hrs by SRB assay; assay type: functional, cell-based; details: HL-60, 48 h
PBMC = experiment: Inhibition of anti-CD3 induced human PBMC proliferation at 1 ug/ml; assay type: functional
[13] = system: Mycobacterium tuberculosis; experiment: Antitubercular activity against Mycobacterium tuberculosis H37Rv assessed as inhibition of bacterial growth at 6.25 ug/ml; assay type: functional; details: read-out: GI
[14] = system: Mycobacterium tuberculosis; experiment: Antitubercular activity against Mycobacterium tuberculosis H37Rv; assay type: functional
UO-31 [15] = experiment: Cytotoxicity against human UO31 cells assessed as cell growth inhibition at 3.2 ug/ml after 48 hrs by SRB assay; assay type: functional; details: UO-31, 48 h, read-out: GI
Malme-3M = experiment: Cytotoxicity against human MALME-3M cells assessed as cell growth inhibition after 48 hrs by SRB assay; assay type: functional, cell-based
OVCAR-3 = experiment: Cytotoxicity against human OVCAR3 cells assessed as cell growth inhibition after 48 hrs by SRB assay; assay type: functional, cell-based; details: OVCAR-3, 48 h
SR = experiment: Cytotoxicity against human SR cells assessed as cell growth inhibition after 48 hrs by SRB assay; assay type: functional, cell-based
MCF7 [16] = experiment: Cytotoxicity against human MCF7 cells assessed as cell growth inhibition after 48 hrs by SRB assay; assay type: functional, cell-based; details: MCF7, 48 h
SF-268 = experiment: Cytotoxicity against human SF268 cells assessed as cell growth inhibition after 48 hrs by SRB assay; assay type: functional, cell-based; details: SF-268, 48 h
SK-MEL-2 = experiment: Growth inhibition of human SK-MEL-2 cells at 10 uM; assay type: functional; details: read-out: GI

Structure (SMILES): c1ccc2c(c1)Nc1nccnc1S2
- IC50 [1]: 1 to 5 µg/mL (≈ 4.97 to 24.8 µM)
- inhibition in vivo at 10 mg/kg (Rattus norvegicus): 70%
- inhibition at 10 µg/mL (Trachea [2]): 85%

Structure (SMILES): CCN(c1cnc2sc3c4c(=O)c5c(O)c(C)c6c(c5c-3nc2c1)C(=O)[C@@](C)(O/C=C/[C@H](OC)[C@@H](C)[C@@H](OC(C)=O)[C@H](C)[C@H](O)[C@H](C)[C@@H](O)[C@@H](C)/C=C/C=C(/C)C(=O)N4)O6)C(C)C
- MIC [3]: 0.005 µg/mL (≈ 0.00564 µM)

Structure (SMILES): COc1ccc(-c2c3c(N)c4c(nc3nc3[nH]nc(-c5ccccc5)c23)Sc2ccccc2N4)cc1
- pIC50 (MCF7 [4]): 4.44 to 4.46
- pIC50 (PC-3 [5]): 4.44 to 4.46
- pIC50 (HepG2): 4.72
- pIC50 (HCT-116 [6]): 4.44 to 4.46

Structure (SMILES): COc1ccc2c(c1)Sc1nccnc1N2C
- IC50 [1]: 1 to 5 µg/mL (≈ 4.08 to 20.4 µM)
- inhibition at 3 µg/mL (Trachea [7]): 71%

Structure (SMILES): O=C(NCCCl)NCCN1c2nc3ccccc3cc2Sc2cc3ccccc3nc21
- pIC50 (SNB-75): 6.00 to 6.60
- pIC50 (OVCAR-4): 6.00 to 6.60
- pIC50 (OVCAR-5): 6.00 to 6.60
- pIC50 (MOLT-4): 6.00 to 6.60
- pIC50 (SK-MEL-5): 7.06
- pIC50 (IGROV-1): 6.00 to 6.60
- pIC50 (NCI-H460): 6.00 to 6.60
- pIC50 (HOP-92): 6.00 to 6.60
- pIC50 (CCRF-CEM): 6.00 to 6.60
- pIC50 (PC-3 [8]): 6.00 to 6.60
- pIC50 (786-0): 6.00 to 6.60
- pIC50 (HCT-116 [9]): 6.00 to 6.60
- pIC50 (SF-295): 6.00 to 6.60

Structure (SMILES): CCCCN1c2nc3ccccc3cc2Sc2cc3ccccc3nc21
- inhibition of growth at 10 µM (T47D): 86%
- inhibition of growth at 10 µM (MCF7 [10]): 93%
- inhibition of growth at 10 µM (UO-31 [11]): 78%

Structure (SMILES): CCSc1ncc2c(n1)N=c1c(Cl)c3c(c(Cl)c1S2)=Nc1nc(SCC)nc(O)c1S3
- MIC (Aspergillus niger): 138 µg/mL (≈ 262 µM)
- MIC (Escherichia coli): 169 µg/mL (≈ 320 µM)

Structure (SMILES): CN1c2ccncc2Sc2ccncc21
- inhibition of growth at 2.1 µg/mL (EKVX; read-out: GI): 51%
- inhibition of growth at 2.1 µg/mL (UO-31 [12]): 60%

Structure (SMILES): c1cc2c(cn1)Nc1ccncc1S2
- IC50 (COLO 205): 2.4 µg/mL (≈ 11.9 µM)
- IC50 (Hs-578T): 5.9 µg/mL (≈ 29.3 µM)
- IC50 (RXF 393): 3.1 µg/mL (≈ 15.4 µM)
- IC50 (OVCAR-8): 7.1 µg/mL (≈ 35.3 µM)
- IC50 (HOP-92): 1.7 µg/mL
- IC50 (SNB-19): 6.8 µg/mL (≈ 33.8 µM)
- IC50 (PC-3 [8]): 8.4 µg/mL
- IC50 (SF-539): 6.8 µg/mL (≈ 33.8 µM)
- IC50 (786-0): 3.9 µg/mL
- IC50 (HCT-116 [9]): 3.6 µg/mL
- pIC50 (Liver): 4.19
- IC50 (ACHN): 5.4 µg/mL (≈ 26.8 µM)
- IC50 (HOP-62): 0.3 µg/mL (≈ 1.49 µM)
- IC50 (M14): 6.5 µg/mL (≈ 32.3 µM)
- IC50 (HL-60): 4.1 µg/mL (≈ 20.4 µM)
- inhibition at 1 µg/mL (PBMC): 72%

Structure (SMILES): O=c1[nH]c2c(Cl)ccc(Cl)c2c2c1Sc1cc(Cl)ccc1N2
- inhibition of growth at 6.25 µg/mL [13]: 67%
- MIC [14]: > 6.25 µg/mL

Structure (SMILES): O=[N+]([O-])c1ccc(N2c3ccncc3Sc3ccncc32)cc1
- inhibition of growth at 3.2 µg/mL (UO-31 [15]): 44%

Structure (SMILES): [Cl-].c1ccc2nc3c(cc2c1)Sc1cc2ccccc2[n+]2c1N3CC2
- IC50 (COLO 205): 1.3 µg/mL
- IC50 (SK-MEL-5): 1.5 µg/mL
- IC50 (RXF 393): 5 µg/mL
- IC50 (Malme-3M): 1.3 µg/mL
- IC50 (EKVX): 7.6 µg/mL
- IC50 (OVCAR-3): 7.8 µg/mL
- IC50 (NCI-H460): 7.4 µg/mL
- IC50 (PC-3 [8]): 10 µg/mL
- IC50 (SR): 4.9 µg/mL
- IC50 (MCF7 [16]): 3.2 µg/mL
- IC50 (SF-268): 8.5 µg/mL

Structure (SMILES): c1ccc(N2c3nc4ccccc4cc3Sc3cc4ccccc4nc32)nc1
- inhibition of growth at 10 µM (UO-31 [11]): 57 to 73%
- inhibition of growth at 10 µM (SK-MEL-2): 61%
